From US20070049564A1 (Wyeth, priority 2005, published 2007)
Converted amounts (≈) assume the structure as drawn. Read-outs that look alike come from different tables or passages of the source.

Tests used:
[1] = test system: E. coli GC 2231; test: MIC, broth microdilution; conditions: Escherichia coli
[2] = test system: E. coli GC 2235; test: MIC, broth microdilution; conditions: Escherichia coli
[3] = test system: E. coli GC 2233; test: MIC, broth microdilution; conditions: Escherichia coli
[4] = test system: E. coli GC 2270; test: MIC, broth microdilution; conditions: Escherichia coli
[5] = test system: E. coli GC 4560; test: MIC, broth microdilution; conditions: Escherichia coli
[6] = test system: E. coli GC 6465; test: MIC, broth microdilution; conditions: Escherichia coli
[7] = test system: E. coli GC 1073; test: MIC, broth microdilution; conditions: Escherichia coli
[8] = test system: S. typhimurium GC 2172; test: MIC, broth microdilution; conditions: Salmonella enterica, TYPHIMURIUM
[9] = test system: S. aureus GC 6466; test: MIC, broth microdilution; conditions: Staphylococcus aureus
[10] = test system: S. aureus GC 6467; test: MIC, broth microdilution; conditions: Staphylococcus aureus
[11] = test system: S. aureus GC 1079; test: MIC, broth microdilution; conditions: Staphylococcus aureus
[12] = test system: S. aureus GC 4536; test: MIC, broth microdilution; conditions: Staphylococcus aureus
[13] = test system: S. aureus GC 2216; test: MIC, broth microdilution; conditions: Staphylococcus aureus
[14] = test system: S. aureus GC 6469; test: MIC, broth microdilution; conditions: Staphylococcus aureus
[15] = test system: E. faecalis GC 2242; test: MIC, broth microdilution; conditions: Enterococcus faecalis
[16] = test system: E. faecium GC 4556; test: MIC, broth microdilution; conditions: Enterococcus faecium
[17] = test system: E. faecium GC 2243; test: MIC, broth microdilution; conditions: Enterococcus faecium
[18] = test system: c. albicans GC 3066; test: MIC, broth microdilution
[19] = test system: E. coli; test: Range of MIC for E. coli strains; conditions: Escherichia coli
[20] = test system: Staph.; test: Range of MIC for Staph. strains, including MRSA; conditions: Staphylococcus aureus

SMILES: CCC(=O)OCOC(=O)N(CC(=O)Nc1cc(N(C)C)c2c(c1O)C(=O)C1=C(O)[C@]3(O)C(=O)C(C(N)=O)=C(O)[C@@H](N(C)C)[C@@H]3C[C@@H]1C2)C(C)(C)C [Example 49, ({[(2-{[(5aR,6aS,7S,10aS)-9-(aminocarbonyl)-4,7-bis(dimethylamino)-1,8,10a,11-tetrahydroxy-10,12-dioxo-5,5a,6,6a,7,10,10a,12-octahydrotetracen-2-yl]amino}-2-oxoethyl)(tert-butyl)amino]carbonyl}oxy)methyl propionate]
- MIC ([1]; GC2231, read-out: MINIMAL INHIBITORY CONCENTRATION MIC, Human Serum): 8 µg/mL (≈ 11.2 µM)
- MIC ([1]; GC2231, read-out: MINIMAL INHIBITORY CONCENTRATION MIC, Mouse Serum): 0.5 µg/mL (≈ 0.699 µM)
- MIC ([1]; GC2231, read-out: MINIMAL INHIBITORY CONCENTRATION MIC, Water): 16 µg/mL (≈ 22.4 µM)
- MIC ([2]; GC2235, read-out: MINIMAL INHIBITORY CONCENTRATION MIC, Human Serum): 4 µg/mL (≈ 5.59 µM)
- MIC ([2]; GC2235, read-out: MINIMAL INHIBITORY CONCENTRATION MIC, Mouse Serum): 0.5 µg/mL (≈ 0.699 µM)
- MIC ([2]; GC2235, read-out: MINIMAL INHIBITORY CONCENTRATION MIC, Water): 8 µg/mL (≈ 11.2 µM)
- MIC ([3]; GC2233, read-out: MINIMAL INHIBITORY CONCENTRATION MIC, Human Serum): 4 µg/mL (≈ 5.59 µM)
- MIC ([3]; GC2233, read-out: MINIMAL INHIBITORY CONCENTRATION MIC, Mouse Serum): 0.25 µg/mL (≈ 0.349 µM)
- MIC ([3]; GC2233, read-out: MINIMAL INHIBITORY CONCENTRATION MIC, Water): 8 µg/mL (≈ 11.2 µM)
- MIC ([4]; GC2270, read-out: MINIMAL INHIBITORY CONCENTRATION MIC, Human Serum): 4 µg/mL (≈ 5.59 µM)
- MIC ([4]; GC2270, read-out: MINIMAL INHIBITORY CONCENTRATION MIC, Mouse Serum): 0.5 µg/mL (≈ 0.699 µM)
- MIC ([4]; GC2270, read-out: MINIMAL INHIBITORY CONCENTRATION MIC, Water): 16 µg/mL (≈ 22.4 µM)
- MIC ([5]; GC4560, read-out: MINIMAL INHIBITORY CONCENTRATION MIC, Human Serum): 0.5 µg/mL (≈ 0.699 µM)
- MIC ([5]; GC4560, read-out: MINIMAL INHIBITORY CONCENTRATION MIC, Mouse Serum): 0.12 µg/mL (≈ 0.168 µM)
- MIC ([5]; GC4560, read-out: MINIMAL INHIBITORY CONCENTRATION MIC, Water): 1 µg/mL (≈ 1.4 µM)
- MIC ([6]; GC6465, read-out: MINIMAL INHIBITORY CONCENTRATION MIC, Human Serum): 32 µg/mL (≈ 44.7 µM)
- MIC ([6]; GC6465, read-out: MINIMAL INHIBITORY CONCENTRATION MIC, Mouse Serum): 2 µg/mL (≈ 2.79 µM)
- MIC ([6]; GC6465, read-out: MINIMAL INHIBITORY CONCENTRATION MIC, Water): > 64 µg/mL
- MIC ([7]; GC1073, read-out: MINIMAL INHIBITORY CONCENTRATION MIC, Human Serum): 8 µg/mL (≈ 11.2 µM)
- MIC ([7]; GC1073, read-out: MINIMAL INHIBITORY CONCENTRATION MIC, Mouse Serum): 0.5 µg/mL (≈ 0.699 µM)
- MIC ([7]; GC1073, read-out: MINIMAL INHIBITORY CONCENTRATION MIC, Water): 32 µg/mL (≈ 44.7 µM)
- MIC ([8]; read-out: MINIMAL INHIBITORY CONCENTRATION MIC, Human Serum): 32 µg/mL (≈ 44.7 µM)
- MIC ([8]; read-out: MINIMAL INHIBITORY CONCENTRATION MIC, Mouse Serum): 4 µg/mL (≈ 5.59 µM)
- MIC ([8]; read-out: MINIMAL INHIBITORY CONCENTRATION MIC, Water): > 64 µg/mL
- MIC ([9]; GC6466, read-out: MINIMAL INHIBITORY CONCENTRATION MIC, Human Serum): 0.12 µg/mL (≈ 0.168 µM)
- MIC ([9]; GC6466, read-out: MINIMAL INHIBITORY CONCENTRATION MIC, Mouse Serum): 0.12 µg/mL (≈ 0.168 µM)
- MIC ([9]; GC6466, read-out: MINIMAL INHIBITORY CONCENTRATION MIC, Water): 0.12 µg/mL (≈ 0.168 µM)
- MIC ([10]; GC6467, read-out: MINIMAL INHIBITORY CONCENTRATION MIC, Human Serum): 1 µg/mL (≈ 1.4 µM)
- MIC ([10]; GC6467, read-out: MINIMAL INHIBITORY CONCENTRATION MIC, Mouse Serum): 1 µg/mL (≈ 1.4 µM)
- MIC ([10]; GC6467, read-out: MINIMAL INHIBITORY CONCENTRATION MIC, Water): 2 µg/mL (≈ 2.79 µM)
- MIC ([11]; GC1079, read-out: MINIMAL INHIBITORY CONCENTRATION MIC, Human Serum): 0.5 µg/mL (≈ 0.699 µM)
- MIC ([11]; GC1079, read-out: MINIMAL INHIBITORY CONCENTRATION MIC, Mouse Serum): 0.5 µg/mL (≈ 0.699 µM)
- MIC ([11]; GC1079, read-out: MINIMAL INHIBITORY CONCENTRATION MIC, Water): 0.5 µg/mL (≈ 0.699 µM)
- MIC ([12]; GC4536, read-out: MINIMAL INHIBITORY CONCENTRATION MIC, Human Serum): 0.25 µg/mL (≈ 0.349 µM)
- MIC ([12]; GC4536, read-out: MINIMAL INHIBITORY CONCENTRATION MIC, Mouse Serum): 0.25 µg/mL (≈ 0.349 µM)
- MIC ([12]; GC4536, read-out: MINIMAL INHIBITORY CONCENTRATION MIC, Water): 0.25 µg/mL (≈ 0.349 µM)
- MIC ([13]; GC2216, read-out: MINIMAL INHIBITORY CONCENTRATION MIC, Human Serum): 0.25 µg/mL (≈ 0.349 µM)
- MIC ([13]; GC2216, read-out: MINIMAL INHIBITORY CONCENTRATION MIC, Mouse Serum): 0.25 µg/mL (≈ 0.349 µM)
- MIC ([13]; GC2216, read-out: MINIMAL INHIBITORY CONCENTRATION MIC, Water): 0.5 µg/mL (≈ 0.699 µM)
- MIC ([14]; GC6469, read-out: MINIMAL INHIBITORY CONCENTRATION MIC, Human Serum): 1 µg/mL (≈ 1.4 µM)
- MIC ([14]; GC6469, read-out: MINIMAL INHIBITORY CONCENTRATION MIC, Mouse Serum): 1 µg/mL (≈ 1.4 µM)
- MIC ([14]; GC6469, read-out: MINIMAL INHIBITORY CONCENTRATION MIC, Water): 1 µg/mL (≈ 1.4 µM)
- MIC ([15]; GC2242, read-out: MINIMAL INHIBITORY CONCENTRATION MIC, Human Serum): 1 µg/mL (≈ 1.4 µM)
- MIC ([15]; GC2242, read-out: MINIMAL INHIBITORY CONCENTRATION MIC, Mouse Serum): 0.5 µg/mL (≈ 0.699 µM)
- MIC ([15]; GC2242, read-out: MINIMAL INHIBITORY CONCENTRATION MIC, Water): 2 µg/mL (≈ 2.79 µM)
- MIC ([16]; GC4556, read-out: MINIMAL INHIBITORY CONCENTRATION MIC, Human Serum): 1 µg/mL (≈ 1.4 µM)
- MIC ([16]; GC4556, read-out: MINIMAL INHIBITORY CONCENTRATION MIC, Mouse Serum): 0.5 µg/mL (≈ 0.699 µM)
- MIC ([16]; GC4556, read-out: MINIMAL INHIBITORY CONCENTRATION MIC, Water): 2 µg/mL (≈ 2.79 µM)
- MIC ([17]; GC2243, read-out: MINIMAL INHIBITORY CONCENTRATION MIC, Human Serum): 0.25 µg/mL (≈ 0.349 µM)
- MIC ([17]; GC2243, read-out: MINIMAL INHIBITORY CONCENTRATION MIC, Mouse Serum): 0.25 µg/mL (≈ 0.349 µM)
- MIC ([17]; GC2243, read-out: MINIMAL INHIBITORY CONCENTRATION MIC, Water): 0.5 µg/mL (≈ 0.699 µM)
- MIC ([18]; Candida albicans, GC3066, read-out: MINIMAL INHIBITORY CONCENTRATION MIC): > 64 µg/mL
- MINIMAL INHIBITORY CONCENTRATION MIC ([18]; Human Serum): >64 UG/ML
- MINIMAL INHIBITORY CONCENTRATION MIC ([18]; Mouse Serum): >64 UG/ML
- MIC ([19]; 20 h, read-out: Range of MIC, E. coli (Mouse Serum)): 0.25 to 2 µg/mL (≈ 0.349 to 2.79 µM)
- MIC ([19]; read-out: Minimum inhibitory concentration (MIC), E. coli (Human Serum)): 4 to 32 µg/mL (≈ 5.59 to 44.7 µM)
- MIC ([20]; MRSA, read-out: Range of MIC, Staph (Mouse Serum)): 0.12 to 1 µg/mL (≈ 0.168 to 1.4 µM)
- MIC ([20]; MRSA, read-out: Range of MIC, Staph (Water)): 0.12 to 2 µg/mL (≈ 0.168 to 2.79 µM)
- MIC ([20]; read-out: Minimum inhibitory concentration (MIC), Staph (Human Serum)): 0.12 to 1 µg/mL (≈ 0.168 to 1.4 µM)
- MIC ([20]; read-out: Minimum inhibitory concentration (MIC), Staph (Water)): 0.12 to 2 µg/mL (≈ 0.168 to 2.79 µM)
